Converted amounts (≈) assume the structure as drawn.
How the values were obtained:
Assay in all cases: Cytotoxicity assay (MTT)
Type in all cases: cell-based
[1] = system: A431 (human squamous carcinoma); details: Homo sapiens, A-431, 120 h, A431, 5 days, value in µg/mL, read-out: half-maximum inhibitory concentration (IC50)
Method: (§1) Compounds 1−5 were dissolved as described in the previous section. The cytotoxicity assay was initially performed against the cell lines L929 (mouse fibroblasts), as well as KB 3.1 (human papillomavirus-related endocervical adenocarcinoma), as described previously. A detailed protocol, as well as sources of the cell lines, is given in the Supporting Information.
(§2) After incubating the cell lines with a serial dilution of the test compounds (final range: 37 to 0.6 × 10^−3 µg/mL) for five days, the cells were dyed using 3-(4,5-dimethyl-2-thiazolyl)-2,5-diphenyl-2H-tetrazolium bromide (MTT), which is only converted to its purple formazan derivative by living cells. Then, the intensity of the purple derivative in relation to cells without additive (set to 100% viability) for each concentration of a test compound was quantified. For this, the absorption at 595 nm was measured using a microplate reader to calculate the percentage of cell viability. From this, the half-maximum inhibitory concentration (IC50, in µM) was calculated.
(§3) If an inhibition of cell viability with an IC50 < 50 µM was observed, further cell lines were subjected to the test compounds: PC-3 (human prostate adenocarcinoma), SK-OV-3 (human ovary adenocarcinoma), MCF-7 (human breast adenocarcinoma), A431 (human squamous carcinoma) and A549 (human lung carcinoma).
(§4) Protocol: Cytotoxicity Assay
(§5) The ass ay w as co nducted i n 9 6-well flat-bottom mi crotiter plates using the parameters summarised i n Tabl e S 2 and as described in [S2].
(§6) Cell lines L929 and KB 3.1 were incubated at 37 °C under 10 % CO2 in Gibco™ DMEM medium (Thermo Fisher Scientific, Waltham, MA, USA) supplemented with 10 % FBS. A microtiter plate was filled with 120 µL of this suspension (50,000/mL) in each well.
(§7) Seperately, another microtiter plate was filled with 100 µL of growth medium in each well. Then, 50 µL of the test compound sol utions (1 mg/mL) were given to wells of the first column in two replicates (one compound per row). C ell s wi thout addi ti ves, Me O H, and MeOH: DMSO 9+1 were used as negative controls. Starting from the first column, 50 µL of the solutions were gradually transferred to the ne xt col umn, the conte nts thoroughl y mi xed, and 50 µ L transferred to the following column. This created a serial dilution of the test compounds r anging from 333 µg/mL to 1.9 ×10−3 µg/mL. The remai ni ng 50 µL after column twelve were discarded. From this microtiter plate, 60 µL of the sol utions from 111 µg/ mL to 1.9×10−3 µg/mL were given to the first plate containing 120 µL of the cel l suspens i ons (i.e. the hi ghest concentrati on 333 µg/mL was not used). T his resulted i n fi nal compound concent rati ons rangi ng from […]
(§8) After 5 days of incubation under the aforeme ntioned i ncubati on condi ti ons, the half maximum inhibitory concentrati ons (IC 50) were determined using a colorimetric tetrazolium dye MTT assay [S3].
(§9) For this, 20 µL of a 5 mg/mL solution of 3-( 4 ,5 -dimethyl-2-thi azo l yl)-2 ,5 -di phenyl -2H-tetrazolium bromide (MTT) w ere added to each well and incubated for two hours at 37 °C. Then, the microtiter plate was centrifuged (3,000 r p m, 5 mi n) and the supernat ant remo ved by ho l di ng the pl ate upsi de-do wn and gentle shaking. Afterwards, the wells were washed using 100 µL of phosph ate buffered saline (PBS).
(§10) The plate was again centrifuged and the supernatant removed as described before. Then, 100 µL of an isopropanol:HCl solution (1L i sopropanol+4 mL HCl 37 % w/v) were added to the wells. After i ncubati ng fo r 10 mi n at ambi ent te mperature, the a bso r pti o n of the well s at 595 nm was measured wi th an I nfi ni te ® 200 Pro microplate reader (TECAN, Männedorf, Schweiz).
(§11) The absorption values of the cells without additives were averaged and set to 100 % cell viability.
(§12) Then, t he me ans of absorption of the two compound replicates were set in relation to the blank media.
(§13) These percentage values were plotted a gainst the concentration range (37 µg/mL to 0.6×10 −3 µg/mL). […]

[2] = system: A549 (human lung carcinoma); details: Homo sapiens, 120 h, A549, 5 days, value in µg/mL, read-out: half-maximum inhibitory concentration (IC50)
Method: as §1, §2, §3, §4, §5, §6, §7, §8, §9, §10, §11, §12, §13

[3] = system: KB 3.1 (human endocervical adenocarcinoma); details: 5 days
Method: as §1, §2, §4, §5, §6, §7, §8, §9, §10, §11, §12
These percentage values were plotted a gainst the concentration range (37 µg/mL to 0.6×10 −3 µg/mL).
The IC50 val ue w as read from the plot ( i n µg/mL) and the uni ts conversed to µM.
If effects were observed wi th cell lines L929 and KB 3.1 (IC50 < 50 µM), the other cell lines were tested using the same protocol.
Table S2: Cytotoxicity assay experiment parameters cell line type No. growth medium […]

Compound	IC50 [1]	IC50 [2]	IC50 [3]
COc1cccc2c3c(ccc12)-c1ccc(O)c2c(O)ccc-3c12 [Compound 2, viridistratin B]	0.34 µg/mL (≈ 1.08 µM)	0.45 µg/mL (≈ 1.43 µM)	
COc1cccc2c3c(ccc12)-c1ccc(O)c2c(OC)ccc-3c12 [Compound 3, viridistratin C]			85.4 µM

From paper PMC7277860, “Viridistratins A−C, Antimicrobial and Cytotoxic Benzo[j]fluoranthenes from Stromata of Annulohypoxylon viridistratum (Hypoxylaceae, Ascomycota)” (Biomolecules, 2020)
